Source: US20250302839A1 (D&D Biopharmaceuticals, Inc., priority 2024, published 2025)

What was measured:
[1] = tested on: human donor cornea; experiment: Penetration of riboflavin into human donor cornea, evaluated by fluorescence microscopy; assay type: in vitro ADME
[2] = tested on: human donor cornea; experiment: Pre- and post-treatment evaluation of corneal integrity (epithelium, stroma, endothelium; specular microscopy); conditions: 10 mg/ml glutaric anhydride in 0.3M sodium phosphate buffer (pH 8.5), 60 seconds
Experimental: The agent used in this example was glutaric anhydride (GA). Paired human donor corneas were evaluated prior to treatment and immediately after treatment for intact epithelium, stroma, and endothelium. Riboflavin fluorescence for the GA treatment and the non-GA treatment control were compared. The test human cornea sample was labeled 21-095656 OD, and the control human cornea sample was labeled 21-095656 OS.
One pair human corneas were recovered by in situ removal by a certified eyebank technician and placed in LIFE4° C. and stored in Bausch & Lomb 20 ml viewing chambers, and stored at 2-8° C. Corneas were shipped on wet ice overnight to the treatment facility. Upon arrival, the corneas were warmed for 2±2 hours at 35° C. and evaluated for corneal integrity. […] At the time of the study, corneas were warmed for 2±2 hours at 35° C., and evaluated for corneal integrity.
The control and treated cornea samples were placed in a petri dish with the epithelial side up in a laminar flow hood with enough Life4° C. corneal preservation medium to fill the endothelial side of the human cornea with medium. […] Each sample was analyzed before treatment (FIGS. 1A-1C).
A single examiner performed all measurements. Corneal endothelium was evaluated utilizing a Konan Eyebank KeratoAnalyzer. […] Number of cells analyzed. • 8. […]

Structure (SMILES)	time until riboflavin fluorescence was exhibited ([1]; test cornea 21-095656 OD, after 10 mg/ml buffered glutaric anhydride solution for 60 seconds, riboflavin 1.46 mg/ml in PBS, 2 x 0.5 mL, intact epithelium)	disruption of corneal cell junctures permitting riboflavin diffusion ([1]; 10 mg/ml glutaric anhydride in 0.3M sodium phosphate buffer (pH 8.5), 1.0 ml for 60 seconds, continuous drops)	effect on corneal epithelium, stroma and endothelium post-treatment [2]
Cc1cc2nc3c(=O)[nH]c(=O)nc-3n(C[C@H](O)[C@H](O)[C@H](O)CO)c2cc1C [riboflavin, reference compound]	≤ 2 min	–	–
O=C1CCCC(=O)O1 [glutaric anhydride]	–	disrupt cell junctures to permit diffusion of riboflavin through the epithelium and deep into the corneal stroma	did not adversely affect the corneal epithelium, stroma or endothelium
